In patent publication EP4559923A1, “ANTIHISTAMINE COMPOUND, AND PREPARATION METHOD THEREFOR AND USE THEREOF” (HC Synthetic Pharmaceutical Co., Ltd., priority 2022, dated 2024):
Converted amounts (≈) assume the structure as drawn.

Key:
[1] = test system: histamine-induced asthma; test: Antiasthmatic effect on histamine-induced asthma in guinea pigs (latency period); assay type: in vivo; conditions: 1 mg/kg oral gavage, sixty minutes after administration; histamine hydrochloride spray; no asthma within 8 minutes counted as 8 minutes; X±s, n = 5
Procedure: The guinea pigs were placed in a polymethyl methacrylate bell jar and a histamine hydrochloride solution was sprayed ultrasonically (0.8 mg/mL) for 40 seconds. The time point at which the guinea pigs developed asthma was recorded. The time of convulsion and fall was taken as the latency period. Guinea pigs with a latency period exceeding 180 seconds were not selected. […] The guinea pigs were administered by oral gavage at a dose of 2 mL/kg·bw. Sixty minutes after the administration, the guinea pigs were placed in bell jars, and histamine hydrochloride solution was sprayed under the same conditions as in the previous selection. The latency period for the onset of asthma was recorded. […] The results were processed statistically.

[2] = test system: isolated ileal smooth muscle; test: Muscle tone of isolated ileal smooth muscle of guinea pigs, compound alone; conditions: Table 3, no histamine, X±s, n = 8; for Smooth muscle tone (g) After administration: 5 minutes after adding the drug; for Antispasmodic percentage (%): relative to tone before adding compound, 5 min
Procedure: (§1) The guinea pig was knocked unconscious with a wooden stick, and the abdomen was immediately dissected to separate the ileum about 15 cm in length. The contents of the intestinal segment were flushed with Tyrode's solution and placed in Tyrode's solution at a constant temperature of 37°C for later use, and oxygen was supplied simultaneously. The experimental intestinal tract (1 cm in length) was cut and placed into 20 ml of Tyrode's solution at a constant temperature of 37°C with a continuous oxygen supply. One end of the intestine was fixed on the ventilation hook and the other end was connected to the muscle tone transducer and led to the computer interface. The muscle tone value of the ileal smooth muscle was recorded with a BL system. The experiment was carried out after the intestinal segment contraction became stable.
After the ileum contraction curve stabilized, the tone values before adding the drug were recorded, then the drug or DMSO was added, and the average tone value of the ileum contraction curve at that point was recorded 5 minutes later. The operation was repeated 8 times. The antispasmodic percentage was calculated according to the following formula. Antispasmodic percentage =; (Tone value before adding subject compound−Tone value after adding subject compound)/(Tone value before adding subject compound) × 100% [formula]

[3] = Muscle tone of isolated ileal smooth muscle of guinea pigs contracted with histamine; conditions: Table 4; 3 minutes after adding 0.05 mL compound at maximum histamine contraction; x±s, n = 8
Procedure: as §1
(§2) After the ileal peristalsis curve stabilized, the tone values before adding the compound were recorded, and then 0.05 mL of histamine was added. […] The operation was repeated 8 times. The antispasmodic percentage was calculated using the following equation. Antispasmodic percentage; = (Tone value after adding histamine−Tone value after adding subject compound)/(Tone value after adding histamine) × 100% [formula]

[4] = test system: histamine; test: as above; conditions: Table 4; relative to tone after adding histamine; x±s, n = 8; 3 min
Procedure: as §1, §2

[5] = Accelerated stability test; assay type: physicochemical; conditions: 40°C ± 2°C, relative humidity 75% ± 5%; for remaining at 730 h / remaining at 1460 h / remaining at 2190 h / remaining at 4380 h: storage 75% relative humidity, read-out: Content
[6] = Solubility in water, methanol and isopropanol; conditions: for solubility Water: in water; for solubility Isopropanol: in isopropanol
Procedure: The solubility in water, methanol, and isopropanol of the compounds of the present disclosure and the comparative compounds were measured separately.

Row | SMILES | Post-administration latency period [1] | Smooth muscle tone (g) After administration [2] | Antispasmodic percentage (%) [2] | Smooth muscle tone (g) After administration [3] | Antispasmodic percentage (%) [4] | Content ([5]; Month 0) | Description ([5]; Month 0) | Related substances ([5]; Month 0) | Description ([5]; Month 1) | Related substances ([5]; Month 1) | Description ([5]; Month 2) | Related substances ([5]; Month 2) | Description ([5]; Month 3) | Related substances ([5]; Month 3) | Description ([5]; Month 6) | Related substances ([5]; Month 6) | remaining at 730 h ([5]; Month 1) | remaining at 1460 h ([5]; Month 2) | remaining at 2190 h ([5]; Month 3) | remaining at 4380 h ([5]; Month 6) | also measured
1 | O=P(O)(O)OCOCCN1CCC(=C2c3ccc(Cl)cc3CCc3cccnc32)CC1 [Compound IV-8] | 360.12 ± 52.01 s | 1.19 ± 0.29 g | 30.81±18.93% | 1.19 ± 0.28 g | 65.50±19.11% | 99.6% | White powder | 0.03% | White powder | 0.06% | White powder | 0.09% | White powder | 0.14% | White powder | 0.28% | 99.6% | 99.5% | 99.5% | 99.3% | 
2 | Clc1ccc2c(c1)CCc1cccnc1C2=C1CCNCC1 [Desloratadine, desloratadine, reference compound] |  |  |  |  |  |  |  |  |  |  |  |  |  |  |  |  |  |  |  |  | solubility Water [6]: Practically insoluble
3 | O=P(O)(O)OCCN1CCC(=C2c3ccc(Cl)cc3CCc3cccnc32)CC1 [Compound IV-2] | 383.10 ± 50.33 s | 1.19 ± 0.31 g | 33.14±18.39% | 1.18 ± 0.19 g | 65.56±19.28% | 99.6% | White powder | 0.03% | White powder | 0.05% | White powder | 0.09% | White powder | 0.13% | White powder | 0.26% | 99.6% | 99.5% | 99.5% | 99.4% | 
4 | OCCCN1CCC(=C2c3ccc(Cl)cc3CCc3cccnc32)CC1 [Hydroxypropyl desloratadine, hydroxypropyl desloratadine, reference compound] | 288.33 ± 58.12 s | 1.28 ± 0.25 g | 24.70±13.43% | 1.41 ± 0.42 g |  |  |  |  |  |  |  |  |  |  |  |  |  |  |  |  | solubility Water [6]: Practically insoluble
5 | O=P(O)(O)OCCCCCN1CCC(=C2c3ccc(F)cc3CCc3cccnc32)CC1 [Compound III-14] | 372.40 ± 50.33 s | 1.18 ± 0.28 g | 31.79±17.77% | 1.15 ± 0.22 g | 66.07±19.34% | 99.6% | White powder | 0.03% | White powder | 0.06% | White powder | 0.11% | White powder | 0.15% | White powder | 0.32% | 99.5% | 99.5% | 99.5% | 99.3% | 
6 | O=P(O)(O)OCCCCN1CCC(=C2c3ccc(Cl)cc3CCc3cccnc32)CC1 [Compound III-10] | 370.80 ± 51.23 s | 1.15 ± 0.26 g |  | 1.22 ± 0.19 g | 65.24±18.39% |  |  |  |  |  |  |  |  |  |  |  |  |  |  |  | solubility Isopropanol [6]: 25 mg/mL (≈ 54 mM)
7 | O=P(O)(O)OCOCCCN1CCC(=C2c3ccc(Cl)cc3CCc3cccnc32)CC1 [Compound IV-9] | 361.82 ± 51.36 s | 1.17 ± 0.25 g | 32.75±19.48% | 1.18 ± 0.29 g | 65.89±19.76% | 99.7% | White powder | 0.03% | White powder | 0.04% | White powder | 0.05% | White powder | 0.06% | White powder | 0.10% | 99.7% | 99.7% | 99.7% | 99.6% | 
8 | OCCN1CCC(=C2c3ccc(Cl)cc3CCc3cccnc32)CC1 [Hydroxyethyl desloratadine, hydroxyethyl desloratadine, reference compound] | 284.11 ± 59.10 s | 1.30 ± 0.30 g | 23.97±10.32% | 1.43 ± 0.41 g | 57.94±11.45% |  |  |  |  |  |  |  |  |  |  |  |  |  |  |  | solubility Water [6]: Practically insoluble
9 | O=P(O)(O)OCCCN1CCC(=C2c3ccc(Cl)cc3CCc3cccnc32)CC1 [Compound III-7] | 382.57 ± 51.11 s |  | 29.88±18.88% |  | 65.36±17.20% |  |  |  |  |  |  |  |  |  |  |  |  |  |  |  | solubility Isopropanol [6]: 22 mg/mL (≈ 49 mM)
10 | OCCCCCN1CCC(=C2c3ccc(Cl)cc3CCc3cccnc32)CC1 [Hydroxypentyl desloratadine, hydroxypentyl desloratadine, reference compound] | 280.29 ± 58.19 s | 1.24 ± 0.22 g | 28.73±11.32% | 1.41 ± 0.42 g |  |  |  |  |  |  |  |  |  |  |  |  |  |  |  |  | solubility Water [6]: Practically insoluble
11 | OCCCCCCN1CCC(=C2c3ccc(Cl)cc3CCc3cccnc32)CC1 [Hydroxyhexyl desloratadine, hydroxyhexyl desloratadine, reference compound] | 283.84 ± 58.88 s | 1.26 ± 0.23 g | 26.31±13.96% | 1.43 ± 0.43 g |  |  |  |  |  |  |  |  |  |  |  |  |  |  |  |  | solubility Water [6]: Practically insoluble
12 | O=P(O)(O)OCCCN1CCC(=C2c3ccc(Cl)cc3CCc3cccnc32)CC1 [Compound IV-3] | 375.50 ± 47.99 s |  | 32.00±19.55% |  | 64.11±19.66% |  |  |  |  |  |  |  |  |  |  |  |  |  |  |  | solubility Isopropanol [6]: 1 mg/mL (≈ 2.23 mM); solubility Methanol ([6]; in methanol): 21 mg/mL (≈ 46.8 mM); solubility ([6]; water): 390 mg/mL (≈ 869 mM)
13 | O=P(O)(O)OCOCCCCN1CCC(=C2c3ccc(Cl)cc3CCc3cccnc32)CC1 [Compound III-18] | 354.29 ± 50.81 s | 1.13 ± 0.21 g | 34.30±18.66% | 1.18 ± 0.26 g | 65.50±19.34% | 99.7% | White powder | 0.03% | White powder | 0.06% | White powder | 0.12% | White powder | 0.16% | White powder | 0.34% | 99.6% | 99.5% | 99.5% | 99.4% | 
